Measurements: PubChem BioAssay (NCI)
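The concentration for 50% growth inhibition is given as GI50. TGI denotes the concentration required for complete inhibition of growth.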

Experiments:
Experiment in all cases: NCI tumour cell line growth inhibition, 384-well format
[1] = tested on: 786-0 renal
[2] = tested on: HS 578T breast
[3] = tested on: NCI-H460 NSCLC
[4] = tested on: NCI-H522 lung
[5] = tested on: OVCAR-3 ovarian
[6] = tested on: OVCAR-5 ovarian
[7] = tested on: RPMI-8226 leukemia
[8] = tested on: RXF 393 renal
[9] = tested on: SF-295 CNS
[10] = tested on: SK-MEL-2 melanoma
[11] = tested on: SR leukemia
[12] = tested on: SW-620 colon
[13] = tested on: UACC-257 melanoma

**Q.** Which results are given for `CC(C)C[C@H](NC(=O)[C@H](Cc1ccccc1)NC(=O)c1cnccn1)B(O)O`?
**A.** GI50 [1]: < 10 nM; TGI [1]: < 11.3 nM; GI50 [2]: < 10 nM; TGI [2]: < 10 nM; GI50 [3]: < 13 nM; TGI [3]: 19.9 nM; GI50 [4]: < 10 nM; TGI [4]: < 10 nM; GI50 [5]: < 10 nM; TGI [5]: < 10 nM; GI50 [6]: < 10 nM; TGI [6]: < 16.3 nM; GI50 [7]: < 10 nM; TGI [7]: < 10 nM; GI50 [8]: < 10 nM; TGI [8]: < 10 nM; GI50 [9]: < 10 nM; TGI [9]: < 10 nM; GI50 [10]: < 10 nM; TGI [10]: < 10 nM; GI50 [11]: < 10 nM; TGI [11]: < 10 nM; GI50 [12]: < 10 nM; TGI [12]: < 10 nM; GI50 [13]: < 10 nM; TGI [13]: < 10 nM
